Test results: US12156874B2, “Inhibitors of TRPC6” (Boehringer Ingelheim International GmbH, priority 2019, dated 2024)

Legend:
human TRPC6 = molecular target: T1, human TRPC6 (Homo sapiens, UniProt Q9Y210); assay: Assay A: Determination of TRPC6 inhibition, whole-cell patch clamp assay; assay type: cell-based; conditions: 30 nM; HEK293 cells expressing human TRPC6; pre-incubated at least 3 h; average inward current densities vs vehicle; activated by 10 μM ethyl 8-fluoro-1H,2H,3H,4H,5H-pyrido[4,3-b]indole-2-carboxylate
T1 construct: expressed in transfected cells; host or cells: HEK293
T1 sequence (Q9Y210 1-931): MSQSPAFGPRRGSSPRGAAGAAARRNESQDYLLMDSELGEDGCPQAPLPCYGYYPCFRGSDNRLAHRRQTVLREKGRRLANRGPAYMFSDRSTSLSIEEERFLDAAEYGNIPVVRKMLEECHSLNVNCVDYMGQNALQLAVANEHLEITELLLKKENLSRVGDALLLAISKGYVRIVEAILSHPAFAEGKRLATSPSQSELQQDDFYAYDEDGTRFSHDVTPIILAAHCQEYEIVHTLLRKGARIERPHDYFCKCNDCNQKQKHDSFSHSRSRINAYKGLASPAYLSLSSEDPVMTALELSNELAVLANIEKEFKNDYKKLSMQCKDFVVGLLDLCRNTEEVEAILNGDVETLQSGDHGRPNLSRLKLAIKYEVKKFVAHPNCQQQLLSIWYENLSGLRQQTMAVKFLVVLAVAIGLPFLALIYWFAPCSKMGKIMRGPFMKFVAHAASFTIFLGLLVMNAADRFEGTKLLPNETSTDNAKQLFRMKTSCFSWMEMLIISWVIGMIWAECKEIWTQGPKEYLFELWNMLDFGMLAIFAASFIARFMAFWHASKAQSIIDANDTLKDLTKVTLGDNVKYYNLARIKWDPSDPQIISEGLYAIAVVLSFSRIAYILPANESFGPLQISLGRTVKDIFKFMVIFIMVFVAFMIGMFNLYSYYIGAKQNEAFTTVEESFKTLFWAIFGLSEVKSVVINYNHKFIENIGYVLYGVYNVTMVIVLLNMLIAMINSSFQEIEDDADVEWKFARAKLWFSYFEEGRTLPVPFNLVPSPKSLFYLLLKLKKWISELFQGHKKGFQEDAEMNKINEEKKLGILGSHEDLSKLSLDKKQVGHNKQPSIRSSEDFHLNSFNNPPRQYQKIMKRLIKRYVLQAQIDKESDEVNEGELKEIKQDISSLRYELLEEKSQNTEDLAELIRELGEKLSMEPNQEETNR
Excerpt: Assay A: Determination of TRPC6 Inhibition
HEK293 cells transfected with a plasmid expressing human TRPC6 are used for a patch clamp assay. Patch clamp experiments permit the detection of currents through TRPC6 channels in cellular systems as mentioned above. For whole-cell patch clamp recordings, a glass capillary electrode filled with electrolyte is brought into contact with a single cell and a high-resistance (gigaohm) seal is established with the cell membrane. The membrane is then ruptured to achieve the whole-cell configuration, permitting control of the intracellular electrical potential and measurement of electrical currents across the cell membrane using an amplifier connected to the electrode. A perfusion system permits control of the extracellular solution, including the addition of inhibitors and activators of TRPC6 channels. The TRPC6 current can be activated by 10 μM ethyl 8-fluoro-1H,2H,3H,4H,5H-pyrido[4,3-b]indole-2-carboxylate (commercially available, MFCD02930345) in the extracellular solution.
For the characterization of TRPC6 inhibitors, TRPC6 expression was induced for 20-48 hours, cells were removed from growth plates, and replated at low density (to attain good single-cell physical separation) in small dishes for measurement. Patch clamp recordings were performed in the whole-cell configuration at a holding potential of −40 mV. Every 1.5 seconds, a 400 ms voltage ramp was applied from −80 to +80 mV, flanked by 50 ms constant segments at −80 and +80 mV, respectively. TRPC6-mediated currents were quantified during those constant segments at −80 mV and +80 mV. The internal (pipette) solution consisted of 140 mM cesium aspartate, 10 mM EGTA, 1.91 mM CaCl2, 2.27 mM MgCl2 and 10 mM HEPES, pH 7.2 with CsOH, 40 nM calculated free Ca^2+. The external (bath) solution consisted of 145 mM NaCl, 4.5 mM KCl, 3 mM MgCl2, 10 mM HEPES, 10 mM glucose, 1 mM EGTA, pH 7.4 with NaOH. TRPC6 expressing cells were pre-incubated with potential inhibitors at either 30 nM or at various concentrations (for concentration-response-curves) or vehicle for at least 3 h and both maximal inward and outward currents were determined after addition of ethyl 8-fluoro-1H,2H,3H,4H,5H-pyrido[4,3-b]indole-2-carboxylate. Percent current inhibition was calculated from the average inward current densities of treated and vehicle cells. Current densities were calculated as absolute current normalized with respect to the individual cell's membrane capacitance as a surrogate parameter for cellular surface area. The number of cells measured for each group was chosen in a way that an average of 50% current inhibition with respect to the vehicle group would yield a statistically significant difference (p<0.05) in 90% of the cases based on the variability in current expression between cells. For the estimation of half-inhibitory concentrations, the Hill equation was fitted to the average % percent inhibition values at a series of concentrations of a specific compound.

PASMC = conditions: cited from earlier work
TRPC6 = conditions: lung tissue of IPAH patients; cited from earlier work

Row | Structure (SMILES) | inhibition at 0.03 µM (human TRPC6) [%] | proliferation of PASMC (PASMC) | expression of TRPC6 (TRPC6)
1 | COc1ccc(Oc2ccc(C(=O)N3CC[C@H](c4nnc(N)cc4C)C[C@@H]3C)cc2)cn1 [Compound 1, 6-[(2S,4S)-1-{4-[(6-Methoxypyridin-3-yl)oxy]benzoyl}-2-methylpiperidin-4-yl]-5-methylpyridazin-3-amine trifluoroacetic acid] | 81 | – | –
2 | COc1ccc(Oc2ccc(C(=O)N3CC[C@H](c4nnc(N)cc4C)C[C@@H]3C)cc2OC)cn1 [Compound 2, 6-[(2S,4S)-1-{3-Methoxy-4-[(6-methoxypyridin-3-yl)oxy]benzoyl}-2-methylpiperidin-4-yl]-5-methylpyridazin-3-amine] | 60 | – | –
3 | COc1cc(C(=O)N2CC[C@H](c3nnc(N)cc3C)C[C@@H]2C)ccc1Oc1ccc(C(F)(F)F)nc1 [Compound 4, 6-[(2S,4S)-1-(3-Methoxy-4-{[6-(trifluoromethyl)pyridin-3-yl]oxy}benzoyl)-2-methylpiperidin-4-yl]-5-methylpyridazin-3-amine] | 12 | – | –
4 | COc1ccc(Oc2cnc(C(=O)N3CCC(c4ccc(N)nn4)CC3)cc2OC)cn1 [Compound 5, 6-(1-{4-Methoxy-5-[(6-methoxypyridin-3-yl)oxy]pyridine-2-carbonyl}piperidin-4-yl)pyridazin-3-amine trifluoracetic acid] | 27 | – | –
5 | COc1ccc(Oc2ccc(C(=O)N3CC[C@@H](c4nnc(N)cc4C)[C@@H](C)C3)cc2OC)cn1 [Compound 6, 6-[(3R,4R)-1-{3-Methoxy-4-[(6-methoxypyridin-3-yl)oxy]benzoyl}-3-methylpiperidin-4-yl]-5-methylpyridazin-3-amine] | 72 | – | –
6 | COc1ccc(Oc2ccc(C(=O)N3CCC(c4nnc(N)cc4C)CC3)cc2)cn1 [Compound 7, 6-(1-{4-[(6-Methoxypyridin-3-yl)oxy]benzoyl}piperidin-4-yl)-5-methylpyridazin-3-amine trifluoroacetic acid] | 61 | – | –
7 | COc1ccc(Oc2ccc(C(=O)N3CCC(c4nnc(N)cc4C)CC3)cc2OC)cn1 [Compound 8, 6-(1-{3-Methoxy-4-[(6-methoxypyridin-3-yl)oxy]benzoyl}piperidin-4-yl)-5-methylpyridazin-3-amine trifluoroacetic acid] | 37 | – | –
8 | COc1ccc(Oc2cnc(C(=O)N3CCC(c4nnc(N)cc4C)CC3)cc2OC)cn1 [Compound 9, 6-(1-{4-Methoxy-5-[(6-methoxypyridin-3-yl)oxy]pyridine-2-carbonyl}piperidin-4-yl)-5-methylpyridazin-3-amine trifluoracetic acid] | 51 | – | –
9 | COc1ccccc1Oc1c(NS(=O)(=O)c2ccc(C(C)(C)C)cc2)nc(-c2ncccn2)nc1OCCO [bosentan] | – | decreases proliferation | decreases expression of TRPC6
